In article PMC9954146, “Anti-Leukaemic Activity of Rilpivirine Is Mediated by Aurora A Kinase Inhibition” (Cancers, 2023):

What was measured:
Experiment in all cases: Kinase panel
Assay type in all cases: biochemical
Settings in all cases: read-out: % Residual Activity
CDKL2(h) = molecular target: T1, CDKL2(h) (Homo sapiens, UniProt Q92772)
T1 construct: purchased Eurofins (KinaseProfiler)
Protocol: (§1) Kinome-wide selectivity of rilpivirine was measured using the kinase screening and profiling service of Eurofins Scientific (Le bois l’Evêque 86600. Celle-Lévescault, France) and Ki values were determined using radioisotope-based assays by Reaction Biology Corporation (Malvern, PA, USA). The experimental details of Eurofin Scientific and Reaction Biology services for relevant assays are available at https://www.eurofinsdiscoveryservices.com/services/in-Vitro-assays/kinases/kinase-profiler (accessed on 7 July 2021) and https://www.reactionbiology.com (accessed on 7 July 2021), respectively. Ki values were estimated from the corresponding IC50 values using the Cheng–Prusoff equation [21] and the Km (ATP) of individual kinase was used for IC50 determination.

PKCγ(h) = molecular target: T2, PKCγ(h) (Homo sapiens, UniProt P05129)
T2 construct: purchased Eurofins (KinaseProfiler)
Protocol: as §1

MLK3(h) = molecular target: T3, MLK3(h) (Homo sapiens, UniProt Q16584)
T3 construct: purchased Eurofins (KinaseProfiler)
T3 sequence (Q16584 whole entry): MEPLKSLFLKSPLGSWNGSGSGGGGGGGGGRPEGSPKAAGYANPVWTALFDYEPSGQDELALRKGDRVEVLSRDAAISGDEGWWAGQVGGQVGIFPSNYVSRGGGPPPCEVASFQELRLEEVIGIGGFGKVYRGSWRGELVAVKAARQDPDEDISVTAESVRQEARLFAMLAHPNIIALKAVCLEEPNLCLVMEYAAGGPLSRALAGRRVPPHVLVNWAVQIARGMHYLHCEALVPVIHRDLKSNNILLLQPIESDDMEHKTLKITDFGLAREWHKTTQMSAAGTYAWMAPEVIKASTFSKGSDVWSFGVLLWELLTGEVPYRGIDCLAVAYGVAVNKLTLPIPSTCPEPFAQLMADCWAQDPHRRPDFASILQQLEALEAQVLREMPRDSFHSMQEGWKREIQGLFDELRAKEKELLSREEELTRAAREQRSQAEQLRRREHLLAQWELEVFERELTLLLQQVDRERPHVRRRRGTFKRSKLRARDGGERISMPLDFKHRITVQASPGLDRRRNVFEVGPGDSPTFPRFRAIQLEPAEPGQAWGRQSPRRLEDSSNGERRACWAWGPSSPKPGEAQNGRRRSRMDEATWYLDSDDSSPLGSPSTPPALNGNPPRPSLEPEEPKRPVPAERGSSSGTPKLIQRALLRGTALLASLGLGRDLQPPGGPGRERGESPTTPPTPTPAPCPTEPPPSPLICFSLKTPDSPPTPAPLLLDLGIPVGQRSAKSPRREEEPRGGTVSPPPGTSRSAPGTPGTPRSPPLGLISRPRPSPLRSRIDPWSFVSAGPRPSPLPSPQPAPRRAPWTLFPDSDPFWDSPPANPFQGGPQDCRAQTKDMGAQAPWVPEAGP
Protocol: as §1

PRAK(h) = molecular target: T4, PRAK(h) (Homo sapiens, UniProt Q8IW41)
T4 construct: purchased Eurofins (KinaseProfiler)
T4 sequence (Q8IW41 whole entry): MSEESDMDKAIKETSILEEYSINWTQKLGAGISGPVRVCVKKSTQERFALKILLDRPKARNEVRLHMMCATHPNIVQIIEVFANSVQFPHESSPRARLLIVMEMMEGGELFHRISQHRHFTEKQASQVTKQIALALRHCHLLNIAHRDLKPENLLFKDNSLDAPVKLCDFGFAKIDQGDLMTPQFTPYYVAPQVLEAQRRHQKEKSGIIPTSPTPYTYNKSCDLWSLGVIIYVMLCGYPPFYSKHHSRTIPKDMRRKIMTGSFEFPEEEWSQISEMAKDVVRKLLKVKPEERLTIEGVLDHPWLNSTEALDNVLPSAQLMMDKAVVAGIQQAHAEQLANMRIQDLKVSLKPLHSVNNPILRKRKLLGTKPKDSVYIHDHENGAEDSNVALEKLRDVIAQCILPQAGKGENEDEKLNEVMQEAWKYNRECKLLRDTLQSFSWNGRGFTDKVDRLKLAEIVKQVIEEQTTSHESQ
Protocol: as §1

EphB1(h) = molecular target: T5, EphB1(h) (Homo sapiens, UniProt P54762)
T5 construct: purchased Eurofins (KinaseProfiler)
Protocol: as §1

ASK1(h) = molecular target: T6, ASK1(h) (Homo sapiens, UniProt Q99683)
T6 construct: purchased Eurofins (KinaseProfiler)
Protocol: as §1

Ros(h) = molecular target: T7, Ros(h) (Homo sapiens, UniProt P08922)
T7 construct: purchased Eurofins (KinaseProfiler)
Protocol: as §1

NLK(h) = molecular target: T8, NLK(h) (Homo sapiens, UniProt Q9UBE8)
T8 construct: purchased Eurofins (KinaseProfiler)
Protocol: as §1

PKCδ(h) = molecular target: T9, PKCδ(h) (Homo sapiens, UniProt Q05655)
T9 construct: purchased Eurofins (KinaseProfiler)
Protocol: as §1

NEK7(h) = molecular target: T10, NEK7(h) (Homo sapiens, UniProt Q8TDX7)
T10 construct: purchased Eurofins (KinaseProfiler)
Protocol: as §1

TSSK3(h) = molecular target: T11, TSSK3(h) (Homo sapiens, UniProt Q96PN8)
T11 construct: purchased Eurofins (KinaseProfiler)
Protocol: as §1

MKK6(h) = molecular target: T12, MKK6(h) (Homo sapiens, UniProt P52564)
T12 construct: purchased Eurofins (KinaseProfiler)
Protocol: as §1

[1] = molecular target: PI3 Kinase (p110a/p65a)(h) (Homo sapiens, UniProt P42336)
Protocol: as §1

IRR(h) = molecular target: T13, IRR(h) (Homo sapiens, UniProt P14616)
T13 construct: purchased Eurofins (KinaseProfiler)
Protocol: as §1

CaMKIIδ(h) = molecular target: T14, CaMKIIδ(h) (Homo sapiens, UniProt Q13557)
T14 construct: purchased Eurofins (KinaseProfiler)
Protocol: as §1

Rsk2(h) = molecular target: T15, Rsk2(h) (Homo sapiens, UniProt P51812)
T15 construct: purchased Eurofins (KinaseProfiler)
Protocol: as §1

Fer(h) = molecular target: T16, Fer(h) (Homo sapiens, UniProt P16591)
T16 construct: purchased Eurofins (KinaseProfiler)
Protocol: as §1

Tie2 (h) = molecular target: T17, Tie2 (h) (Homo sapiens, UniProt Q02763)
T17 construct: purchased Eurofins (KinaseProfiler)
Protocol: as §1

PKCη(h) = molecular target: T18, PKCη(h) (Homo sapiens, UniProt P24723)
T18 construct: purchased Eurofins (KinaseProfiler)
Protocol: as §1

CDK5/p35(h) = molecular target: T19, CDK5/p35(h) (Homo sapiens, UniProt Q00535)
T19 construct: purchased Eurofins (KinaseProfiler)
Protocol: as §1

PIP5K1a(h) = PIP5K1a(h) (Homo sapiens, UniProt Q99755)
Sequence of PIP5K1a(h) (Q99755 whole entry): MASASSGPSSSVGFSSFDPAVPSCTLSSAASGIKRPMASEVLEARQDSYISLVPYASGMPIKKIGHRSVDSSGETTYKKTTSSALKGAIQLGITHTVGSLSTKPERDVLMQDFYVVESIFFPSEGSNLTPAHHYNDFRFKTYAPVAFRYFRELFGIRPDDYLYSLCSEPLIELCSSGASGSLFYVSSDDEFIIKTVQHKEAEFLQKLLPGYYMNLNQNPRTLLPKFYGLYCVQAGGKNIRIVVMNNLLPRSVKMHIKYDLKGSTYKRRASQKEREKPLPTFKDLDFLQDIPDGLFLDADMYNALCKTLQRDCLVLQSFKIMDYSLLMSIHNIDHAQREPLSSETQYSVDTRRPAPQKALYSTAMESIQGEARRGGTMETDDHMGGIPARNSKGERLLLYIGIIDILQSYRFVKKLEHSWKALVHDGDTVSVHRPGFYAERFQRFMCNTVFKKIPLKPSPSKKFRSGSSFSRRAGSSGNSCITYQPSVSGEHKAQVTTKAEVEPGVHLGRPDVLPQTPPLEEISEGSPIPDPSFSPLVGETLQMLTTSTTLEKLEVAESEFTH
Protocol: as §1

VRK2(h) = molecular target: T20, VRK2(h) (Homo sapiens, UniProt Q86Y07)
T20 construct: purchased Eurofins (KinaseProfiler)
Protocol: as §1

CHK1(h) = molecular target: T21, CHK1(h) (Homo sapiens, UniProt O14757)
T21 construct: purchased Eurofins (KinaseProfiler)
T21 sequence (O14757 whole entry): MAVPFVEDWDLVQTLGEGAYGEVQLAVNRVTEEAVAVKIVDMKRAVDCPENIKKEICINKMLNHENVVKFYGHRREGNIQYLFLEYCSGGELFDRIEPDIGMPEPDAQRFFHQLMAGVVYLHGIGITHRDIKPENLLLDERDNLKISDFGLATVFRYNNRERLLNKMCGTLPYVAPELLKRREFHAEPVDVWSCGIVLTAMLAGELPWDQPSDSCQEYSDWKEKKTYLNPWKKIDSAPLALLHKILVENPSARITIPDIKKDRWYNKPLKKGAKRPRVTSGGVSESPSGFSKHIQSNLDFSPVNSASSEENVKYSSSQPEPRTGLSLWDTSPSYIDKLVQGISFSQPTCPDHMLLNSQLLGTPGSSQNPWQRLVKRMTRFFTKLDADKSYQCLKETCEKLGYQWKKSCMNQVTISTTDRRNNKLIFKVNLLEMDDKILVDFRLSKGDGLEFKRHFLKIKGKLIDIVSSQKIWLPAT
Protocol: as §1

STK39(h) = molecular target: T22, STK39(h) (Homo sapiens, UniProt Q9UEW8)
T22 construct: purchased Eurofins (KinaseProfiler)
Protocol: as §1

CHK2(h) = molecular target: T23, CHK2(h) (Homo sapiens, UniProt O96017)
T23 construct: purchased Eurofins (KinaseProfiler)
Protocol: as §1

ErbB2(h) = molecular target: T24, ErbB2(h) (Homo sapiens, UniProt P04626)
T24 construct: purchased Eurofins (KinaseProfiler)
Protocol: as §1

[2] = molecular target: PI3 Kinase (p110b/p85b)(m) (Mus musculus, UniProt Q8BTI9)
Protocol: as §1

mTOR/FKBP12(h) = molecular target: T25, mTOR/FKBP12(h) (Homo sapiens, UniProt P42345)
T25 construct: purchased Eurofins (KinaseProfiler)
Protocol: as §1

PI3 Kinase (p120g)(h) = molecular target: T26, PI3 Kinase (p120g)(h) (Homo sapiens, UniProt P48736)
T26 construct: purchased Eurofins (KinaseProfiler)
Protocol: as §1

JNK2α2(h) = molecular target: T27, JNK2α2(h) (Homo sapiens, UniProt P45984)
T27 construct: purchased Eurofins (KinaseProfiler)
Protocol: as §1

SIK2(h) = molecular target: T28, SIK2(h) (Homo sapiens, UniProt Q9H0K1)
T28 construct: purchased Eurofins (KinaseProfiler)
Protocol: as §1

TrkB(h) = molecular target: T29, TrkB(h) (Homo sapiens, UniProt Q16620)
T29 construct: purchased Eurofins (KinaseProfiler)
Protocol: as §1

PKCθ(h) = molecular target: T30, PKCθ(h) (Homo sapiens, UniProt Q04759)
T30 construct: purchased Eurofins (KinaseProfiler)
T30 sequence (Q04759 whole entry): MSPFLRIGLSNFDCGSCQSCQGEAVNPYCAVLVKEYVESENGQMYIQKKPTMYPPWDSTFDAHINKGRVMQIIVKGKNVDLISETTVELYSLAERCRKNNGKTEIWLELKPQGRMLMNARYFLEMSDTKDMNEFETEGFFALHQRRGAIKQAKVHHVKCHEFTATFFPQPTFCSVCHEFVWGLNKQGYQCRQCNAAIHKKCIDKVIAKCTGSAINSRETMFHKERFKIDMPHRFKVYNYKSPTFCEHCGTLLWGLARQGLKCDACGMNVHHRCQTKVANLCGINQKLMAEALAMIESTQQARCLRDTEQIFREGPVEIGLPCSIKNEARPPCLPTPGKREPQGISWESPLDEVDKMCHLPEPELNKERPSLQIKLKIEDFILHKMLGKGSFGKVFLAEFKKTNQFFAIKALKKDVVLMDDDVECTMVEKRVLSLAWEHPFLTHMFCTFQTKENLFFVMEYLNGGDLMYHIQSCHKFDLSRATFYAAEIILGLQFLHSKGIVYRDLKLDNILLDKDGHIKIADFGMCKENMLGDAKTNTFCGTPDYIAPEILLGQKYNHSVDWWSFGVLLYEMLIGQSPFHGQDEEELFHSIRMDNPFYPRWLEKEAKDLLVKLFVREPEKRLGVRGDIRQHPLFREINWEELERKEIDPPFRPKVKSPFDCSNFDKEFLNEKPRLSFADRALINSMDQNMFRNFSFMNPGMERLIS
Protocol: as §1

NIM1(h) = molecular target: T31, NIM1(h) (Homo sapiens, UniProt Q8IY84)
T31 construct: purchased Eurofins (KinaseProfiler)
Protocol: as §1

Fes(h) = molecular target: T32, Fes(h) (Homo sapiens, UniProt P07332)
T32 construct: purchased Eurofins (KinaseProfiler)
T32 sequence (P07332 whole entry): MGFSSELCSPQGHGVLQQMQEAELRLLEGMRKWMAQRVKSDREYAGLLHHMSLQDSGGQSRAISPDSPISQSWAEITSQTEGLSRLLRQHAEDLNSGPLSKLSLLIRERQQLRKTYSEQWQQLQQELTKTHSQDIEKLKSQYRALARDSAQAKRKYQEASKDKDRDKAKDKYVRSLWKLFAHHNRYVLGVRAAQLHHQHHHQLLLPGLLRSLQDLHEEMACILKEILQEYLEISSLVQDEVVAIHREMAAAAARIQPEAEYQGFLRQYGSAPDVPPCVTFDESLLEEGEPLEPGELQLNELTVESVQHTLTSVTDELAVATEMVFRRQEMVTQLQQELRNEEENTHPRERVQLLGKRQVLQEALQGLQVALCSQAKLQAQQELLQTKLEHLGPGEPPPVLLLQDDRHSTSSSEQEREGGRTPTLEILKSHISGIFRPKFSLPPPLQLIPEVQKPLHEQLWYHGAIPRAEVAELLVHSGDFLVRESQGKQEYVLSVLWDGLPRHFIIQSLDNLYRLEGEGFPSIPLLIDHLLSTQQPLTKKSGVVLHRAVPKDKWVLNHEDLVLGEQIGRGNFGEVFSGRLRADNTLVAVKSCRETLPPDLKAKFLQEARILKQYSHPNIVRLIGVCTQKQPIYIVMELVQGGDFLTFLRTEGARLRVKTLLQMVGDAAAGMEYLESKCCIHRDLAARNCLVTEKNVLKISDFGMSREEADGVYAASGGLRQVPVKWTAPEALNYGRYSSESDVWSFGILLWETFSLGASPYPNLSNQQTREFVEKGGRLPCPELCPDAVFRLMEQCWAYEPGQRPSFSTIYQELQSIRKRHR
Protocol: as §1

MRCKβ(h) = molecular target: T33, MRCKβ(h) (Homo sapiens, UniProt Q9Y5S2)
T33 construct: purchased Eurofins (KinaseProfiler)
Protocol: as §1

CDK7/cyclinH/MAT1(h) = molecular target: T34, CDK7/cyclinH/MAT1(h) (Homo sapiens, UniProt P50613)
T34 construct: purchased Eurofins (KinaseProfiler)
T34 sequence (P50613 whole entry): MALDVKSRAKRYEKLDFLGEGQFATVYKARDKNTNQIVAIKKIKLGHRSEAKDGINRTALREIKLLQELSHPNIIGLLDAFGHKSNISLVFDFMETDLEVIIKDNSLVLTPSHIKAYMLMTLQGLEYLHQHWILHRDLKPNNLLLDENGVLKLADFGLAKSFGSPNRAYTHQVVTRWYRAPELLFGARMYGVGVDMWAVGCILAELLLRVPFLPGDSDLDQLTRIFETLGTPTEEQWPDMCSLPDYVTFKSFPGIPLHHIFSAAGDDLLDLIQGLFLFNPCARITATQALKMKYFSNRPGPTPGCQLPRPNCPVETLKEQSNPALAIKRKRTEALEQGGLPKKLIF
T34 sequence (P51946 whole entry partner): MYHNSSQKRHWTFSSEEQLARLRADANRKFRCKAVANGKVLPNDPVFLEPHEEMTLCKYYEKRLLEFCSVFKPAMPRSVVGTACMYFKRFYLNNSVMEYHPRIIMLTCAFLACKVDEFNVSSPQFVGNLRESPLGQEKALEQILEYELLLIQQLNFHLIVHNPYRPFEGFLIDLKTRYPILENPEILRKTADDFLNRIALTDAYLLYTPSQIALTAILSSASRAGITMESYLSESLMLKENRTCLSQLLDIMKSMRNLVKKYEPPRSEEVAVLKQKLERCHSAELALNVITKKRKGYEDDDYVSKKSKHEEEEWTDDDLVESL
T34 sequence (P51948 whole entry partner): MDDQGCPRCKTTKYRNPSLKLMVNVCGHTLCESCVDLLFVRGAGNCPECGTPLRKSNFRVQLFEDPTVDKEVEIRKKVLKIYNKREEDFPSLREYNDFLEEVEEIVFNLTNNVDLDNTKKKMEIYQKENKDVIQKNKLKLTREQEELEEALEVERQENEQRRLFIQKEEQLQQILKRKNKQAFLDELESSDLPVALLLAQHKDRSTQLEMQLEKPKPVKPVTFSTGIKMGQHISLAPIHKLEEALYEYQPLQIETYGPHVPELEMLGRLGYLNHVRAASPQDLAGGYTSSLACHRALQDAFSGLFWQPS
Protocol: as §1

Wee1B(h) = molecular target: T35, Wee1B(h) (Homo sapiens, UniProt P0C1S8)
T35 construct: purchased Eurofins (KinaseProfiler)
Protocol: as §1

CaMKIδ(h) = molecular target: T36, CaMKIδ(h) (Homo sapiens, UniProt Q8IU85)
T36 construct: purchased Eurofins (KinaseProfiler)
Protocol: as §1

## Cc1cc(/C=C/C#N)cc(C)c1Nc1ccnc(Nc2ccc(C#N)cc2)n1 [rilpivirine, (E)-4-((4-((4-(2-cyanoethenyl)-2,6-dimethylphenyl)amino)pyrimidin-2-yl)amino)benzonitrile]
CDKL2(h)
  remaining activity at 1 µM: 100%
PKCγ(h)
  remaining activity at 1 µM: 103%
MLK3(h)
  remaining activity at 1 µM: 81%
PRAK(h)
  remaining activity at 1 µM: 100%
EphB1(h)
  remaining activity at 1 µM: 94%
ASK1(h)
  remaining activity at 1 µM: 92%
Ros(h)
  remaining activity at 1 µM: 77%
NLK(h)
  remaining activity at 1 µM: 64%
PKCδ(h)
  remaining activity at 1 µM: 72%
NEK7(h)
  remaining activity at 1 µM: 110%
TSSK3(h)
  remaining activity at 1 µM: 95%
MKK6(h)
  remaining activity at 1 µM: 94%
[1]
  remaining activity at 1 µM: 93%
IRR(h)
  remaining activity at 1 µM: 95%
CaMKIIδ(h)
  remaining activity at 1 µM: 47%
Rsk2(h)
  remaining activity at 1 µM: 82%
Fer(h)
  remaining activity at 1 µM: 91%
Tie2 (h)
  remaining activity at 1 µM: 93%
PKCη(h)
  remaining activity at 1 µM: 103%
CDK5/p35(h)
  remaining activity at 1 µM: 97%
PIP5K1a(h)
  remaining activity at 1 µM: 96%
VRK2(h)
  remaining activity at 1 µM: 88%
CHK1(h)
  remaining activity at 1 µM: 100%
STK39(h)
  remaining activity at 1 µM: 95%
CHK2(h)
  remaining activity at 1 µM: 93%
ErbB2(h)
  remaining activity at 1 µM: 116%
[2]
  remaining activity at 1 µM: 97%
mTOR/FKBP12(h)
  remaining activity at 1 µM: 100%
PI3 Kinase (p120g)(h)
  remaining activity at 1 µM: 87%
JNK2α2(h)
  remaining activity at 1 µM: 85%
SIK2(h)
  remaining activity at 1 µM: 57%
TrkB(h)
  remaining activity at 1 µM: 72%
PKCθ(h)
  remaining activity at 1 µM: 66%
NIM1(h)
  remaining activity at 1 µM: 88%
Fes(h)
  remaining activity at 1 µM: 85%
MRCKβ(h)
  remaining activity at 1 µM: 87%
CDK7/cyclinH/MAT1(h)
  remaining activity at 1 µM: 78%
Wee1B(h)
  remaining activity at 1 µM: 94%
CaMKIδ(h)
  remaining activity at 1 µM: 100%
